Measured values: US4886813A, “Proline derivatives” (Otsuka Pharmaceutical Factory, Inc., priority 1985, dated 1989)

Biological target: T1, angiotensin-converting enzyme (ACE) (Oryctolagus cuniculus, UniProt P12822)
T1 construct: enzyme solution prepared from rabbit lung acetone powder; tissue Sigma Chemical Co., Ltd., U.S.A; host or cells: rabbit lung (acetone powder)
T1 sequence (P12822 34-1310): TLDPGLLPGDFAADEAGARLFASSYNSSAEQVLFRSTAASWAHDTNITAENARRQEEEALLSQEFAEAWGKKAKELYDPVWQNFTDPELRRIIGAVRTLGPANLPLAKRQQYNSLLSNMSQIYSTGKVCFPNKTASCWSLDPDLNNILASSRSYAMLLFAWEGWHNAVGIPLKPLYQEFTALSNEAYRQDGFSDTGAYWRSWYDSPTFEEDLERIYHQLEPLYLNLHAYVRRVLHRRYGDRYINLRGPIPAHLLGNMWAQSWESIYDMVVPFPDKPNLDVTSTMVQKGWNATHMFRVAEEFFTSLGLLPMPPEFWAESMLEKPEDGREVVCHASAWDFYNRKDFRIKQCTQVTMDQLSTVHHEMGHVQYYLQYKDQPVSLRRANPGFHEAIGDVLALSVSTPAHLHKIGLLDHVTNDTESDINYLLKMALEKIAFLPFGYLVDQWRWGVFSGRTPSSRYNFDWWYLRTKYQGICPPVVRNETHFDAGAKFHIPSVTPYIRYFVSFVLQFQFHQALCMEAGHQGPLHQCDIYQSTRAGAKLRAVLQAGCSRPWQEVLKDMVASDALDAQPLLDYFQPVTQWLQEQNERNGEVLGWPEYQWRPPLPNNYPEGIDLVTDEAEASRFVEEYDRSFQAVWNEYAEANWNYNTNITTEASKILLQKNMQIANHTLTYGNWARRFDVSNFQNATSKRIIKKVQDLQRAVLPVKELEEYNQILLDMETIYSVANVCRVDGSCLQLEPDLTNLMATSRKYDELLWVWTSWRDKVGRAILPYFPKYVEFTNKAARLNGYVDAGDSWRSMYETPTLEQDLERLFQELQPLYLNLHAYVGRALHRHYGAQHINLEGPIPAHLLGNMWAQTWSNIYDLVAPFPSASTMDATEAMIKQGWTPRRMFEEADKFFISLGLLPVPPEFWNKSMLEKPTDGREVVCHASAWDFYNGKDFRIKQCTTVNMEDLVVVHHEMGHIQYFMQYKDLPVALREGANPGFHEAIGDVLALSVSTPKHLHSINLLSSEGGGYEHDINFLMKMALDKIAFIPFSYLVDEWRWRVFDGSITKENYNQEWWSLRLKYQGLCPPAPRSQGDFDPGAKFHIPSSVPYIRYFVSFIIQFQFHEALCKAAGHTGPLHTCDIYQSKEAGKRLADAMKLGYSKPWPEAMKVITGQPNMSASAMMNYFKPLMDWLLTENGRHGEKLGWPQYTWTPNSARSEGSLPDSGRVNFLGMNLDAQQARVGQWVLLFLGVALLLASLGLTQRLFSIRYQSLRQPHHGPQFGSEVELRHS
Assay: Inhibitory activity against angiotensin-converting enzyme (ACE)
Type: biochemical
Conditions: enzyme from rabbit lung acetone powder; substrate hippuryl-histidyl-leucine; 37° C.; preincubation 10 minutes, reaction 45 minutes
Protocol: A 100 μl quantity of an enzyme solution prepared from rabbit lung acetone powder (product of Sigma Chemical Co., Ltd., U.S.A.) was mixed with 100 μl of a sample solution. The mixture was gently shaken at 37° C. for 10 minutes. To the reaction mixture was added 100 μl of a solution containing 6.69 mM of hippuryl-histidyl-lecuine (product of Peptide Institute, Inc., Japan) as a substrate. The mixture was reacted at 37° C. for 45 minutes while being shaken. The reaction was terminated by addition of 200 μl of a 1N sulfuric acid to the reaction mixture. Sodium chloride (saturation amount) and diethyl ether (2 ml) were added to the reaction mixture to extract the hippuric acid formed by the reaction. The resulting mixture was vigorously shaken for 15 minutes and centrifuged at 2000 r.p.m. for 5 minutes. A 1.5 ml quantity of the ether layer was separated. After the solvent was distilled off, the residue was redissolved in 1.5 ml of distilled water and the absorbance of 228 nm was measured. A control was prepared by repeating the same procedure as above except that […] of distilled water was used in place of the sample solution.
The inhibitory activity was calculated by deducting the absorbance value of the residue formed by addition of the sample solution from that of the control and the resulting value was divided by the absorbance value of the control and multipled by 100, thereby giving a percent inhibition. The inhibitory activity was expressed as IC50, i.e., the concentration of the same sample solution in the reaction mixture in which concentration 50% inhibition is achieved.

SMILES | IC50 [nM]
CC(N[C@@H](CSC1(C)CCCCC1)C(=O)O)C(=O)N1CCC[C@H]1C(=O)O (stereo partly drawn) | 5.21
CC(N[C@@H](CSC1Cc2ccccc2C1)C(=O)O)C(=O)N1CCC[C@H]1C(=O)O (stereo partly drawn) [Compound 2] | 0.687
CC(N[C@@H](CSC1CCCC1)C(=O)O)C(=O)N1CCC[C@H]1C(=O)O (stereo partly drawn) [Compound 3] | 1.02
CC(N[C@@H](CSCC(=O)NC1CCCC1)C(=O)O)C(=O)N1CCC[C@H]1C(=O)O (stereo partly drawn) [Compound 4] | 61.1
CC(N[C@@H](CSCC(=O)NCc1ccccc1)C(=O)O)C(=O)N1CCC[C@H]1C(=O)O (stereo partly drawn) [Compound 5] | 342
CC(N[C@@H](CSCC(=O)N1CCCCC1)C(=O)O)C(=O)N1CCC[C@H]1C(=O)O (stereo partly drawn) [Compound 6] | 443
CCCCCCCSC[C@H](NC(C)C(=O)N1CCC[C@H]1C(=O)NC(Cc1ccccc1)C(=O)O)C(=O)O (stereo partly drawn) [Compound 7] | 24.1
CCCCCCCSC[C@H](NC(C)C(=O)N1CCC[C@H]1C(=O)NC(C)C(=O)O)C(=O)O (stereo partly drawn) [Compound 8] | 56.3
CCCCCCCSC[C@H](NC(C)C(=O)N1CCC[C@H]1C(=O)NC(C(=O)O)C(C)C)C(=O)O (stereo partly drawn) [Compound 9] | 33.5
